Patent US11912755B2, “Endostatin fragments and variants for use in treating fibrosis” (iBio, Inc., priority 2015, dated 2024)
Entries after “also recorded” stand apart in the source; their conditions may differ. Ends that are not written are not given here.

How the values were obtained:
[1] = system: PAI-1; test: Genes regulated by E4: PAI-1; format: cell-based, human; settings: HuF-T and mouse bleomycin model of pulmonary fibrosis; RT-qPCR, protein expression
Method: (§1) Several experiments have been performed to identify the mechanisms by which E4 exerts its anti-fibrotic activity. Real-time quantitative PCR (qPCR)-based arrays were performed on RNA extracted from primary human lung fibroblasts or mouse lung tissue stimulated with various fibrotic triggers in the absence and presence of E4 treatment in order to identify genes influenced by the endostatin peptide.
(§2) The arrays identified several genes that have been previously implicated in fibrosis to be influenced by E4 treatment. These genes included connective tissue growth factor (CTGF), insulin-like growth factor binding protein (IGFBP)-3, matrix metalloproteases (MMP)-1 and MMP-3, urokinase plasminogen activator (uPA), plasminogen activator inhibitor (PAI)-1, and hepatocyte growth factor (HGF) with levels either decreased or increased in the presence of E4 as shown in TABLE 5.

[2] = system: TGF-β-induced dermal fibrosis in mouse skin; test: In vivo TGF-β-induced dermal fibrosis in mouse skin
Method: In Vivo Mouse Experiments. CB57BL6/J male mice were purchased from The Jackson Laboratory (Bar Harbor, ME). Human rE (10 μg/ml) or Endostatin peptides (10 μg/ml) in combination with TGF-β (10 ng/ml), or TGF-β alone were injected intradermally on the back of mice in a total volume of 100 μl 1×PBS. Mice were injected in two different skin sites and sacrificed one week post-injection. Skin surrounding the injection site was harvested and fixed in 10% formalin prior to embedding in paraffin.
(§3) Measurement of Skin Dermal Thickness. Six μm sections of paraffin-embedded human and mouse skin tissues were stained with hematoxylin and eosin (H&E). In some experiments, sections were stained with Masson trichrome which identifies collagens. Images were taken on a Nikon Eclipse 800 microscope. The thickness of the dermis was measured in 6 random fields of each section using the image/J® software. Data are shown in arbitrary units.
E4, a peptide representing the carboxy terminus of human endostatin, can attenuate fibrosis triggered by multiple fibrogenic factors. The anti-fibrotic effects of E4 can be detected whether administered concomitantly with or following the fibrogenic trigger. The efficacy of E4 was confirmed in […] pre-clinical models of fibrosis: a) bleomycin-induced dermal fibrosis in vivo in mouse skin, b) TGF-β induced dermal fibrosis in mouse skin, and c) bleomycin-induced pulmonary fibrosis. E4 peptide or a control peptide (E1; representing the amino terminal region of endostatin) were administered at the same time as TGF-β or bleomycin or 3-4 days following TGF-β or bleomycin. Mice were sacrificed one and two weeks after TGF-β-initiation of dermal fibrosis, and two and three weeks after bleomycin-induced pulmonary fibrosis. Two different modes of administration of the E4 peptide were also tested. It was confirmed that intraperitoneal and intratracheal administration was effective. The amount of E4 that was administered was 10 μg/ml in a total volume of 100 μl for skin and IP injections and 50 μl for IT administration.
For these studies, fibrosis was assessed by measurement of dermal thickness on H&E skin sections (skin), assessment of collagen levels by Masson Trichrome staining (skin and lung), and measurement of collagen levels by Sircol assay (lung). Furthermore, to confirm the mechanism by which E4 exerts its anti-fibrotic effects, the production of extra-cellular matrix (ECM) components, the levels of enzymes that promote matrix stabilization and thus accumulation and levels of those that degrade ECM components, and levels of transcription factors downstream of the pro-fibrotic triggers were evaluated. Results were assessed using the unpaired t test and the 3-way ANOVA (for the ID1 data).

[3] = system: human skin explants; test: Ex vivo human skin assay, dermal thickness; format: cell-based
Method: Ex vivo human skin assays. Human abdominal skin was obtained from corrective plastic surgery. As previously described (Yasuoka et al., The Open Rheumatol J 2008; 2:17-22), subcutaneous fat tissue was removed uniformly and skin tissue was cut into 1.5 cm×1.5 cm sections. The following were injected intradermally in a total volume of 100 μl 1×PBS: rE alone (1-10 μg/ml), endostatin peptides alone (10 μg/ml), rE or endostatin peptides (1-20 μg/ml) in combination with TGF-β (10 ng/ml), and TGF-β alone (10 ng/ml). In some experiments, human skin was first injected with TGF-β for 48 h followed by recombinant endostatin (rE) administration in the same injection site as TGF-β. Explants containing complete epidermal and dermal layers were cultured in an air liquid interface with the epidermal and keratin layers side up and exposed to air. The culture medium was replaced every other day. After 1 or 2 weeks, skin tissue corresponding to an area with 8-mm diameter centered around the injection site was harvested using disposable 8-mm ACUPUNCH® (Acuderm, Inc., Lauderdale, FL). Skin tissue was fixed in 10% formalin prior to embedding in paraffin.
as §3

[4] = system: TGF-β-induced dermal fibrosis in mouse skin; settings: single dose concurrently with TGF-β; cited from earlier work
[5] = system: MMP-2; test: Gelatin zymography of MMP-2 in primary human lung fibroblasts; format: cell-based; settings: for MMP-2 activity: E-4 following TGF-β
Text: FIG. 14A-14B. FIG. 14A: E4 reduces fibrosis in vitro by inducing MMP-2 activity in primary human lung fibroblasts, thus resulting in increased degradation of collagen and other matrix proteins. […] Lane 1: Vehicle (DMSO); Lane 2: E-4; Lane 3: TGF-β; Lane 4: TGF-β followed by E4. FIG. 14B: Digital image showing that both total and active MMP-2 levels are increased in cells treated with TGF-β and E-4.

[6] = system: uPA; test: Genes regulated by E4: uPA; format: cell-based, human; settings: HuF-T; RT-qPCR, protein expression levels, enzyme activity
Method: as §1, §2

[7] = system: HGF; test: Genes regulated by E4: HGF; format: cell-based, human; settings: HuF-T and mouse bleomycin model of pulmonary fibrosis; RT-qPCR, protein expression
Method: as §1, §2

[8] = system: ID1; test: Real-time PCR of ID1 mRNA in primary human lung fibroblasts; format: cell-based
Method: FIG. 15. […] Real-time PCR analysis was performed to determine the ID1 mRNA levels under the indicated conditions.

[9] = system: bleomycin induced dermal fibrosis; test: Bleomycin-induced dermal fibrosis in mouse skin; format: in vivo; settings: single administration of E4 10 μg/ml on first day, daily bleomycin; skin harvested after 10 days
Method: FIGS. 8A-8B. The effect of endostatin E-4 on bleomycin induced dermal fibrosis in vivo. FIG. 8A: Mice were injected subcutaneously with 1×PBS as vehicle (V) or Bleomycin (Bleo; 20 μg/mouse) daily. E-4 (10 μg/ml) was mixed with bleomycin on the first day, and daily bleomycin administration was continued without subsequent injections of E4 (Bleo+E-4). Skin was harvested after 10 days. Sections were stained with H&E. Magnification, 100×. Data represent three independent experiments. Mann-Whitney U test was used for statistical analysis. * P<0.001, **P<0.00001.
E4, a peptide representing the carboxy terminus of human endostatin, can attenuate fibrosis triggered by multiple fibrogenic factors. The anti-fibrotic effects of E4 can be detected whether administered concomitantly with or following the fibrogenic trigger. The efficacy of E4 was confirmed in […] pre-clinical models of fibrosis: a) bleomycin-induced dermal fibrosis in vivo in mouse skin, b) TGF-β induced dermal fibrosis in mouse skin, and c) bleomycin-induced pulmonary fibrosis. […]
For these studies, fibrosis was assessed by measurement of dermal thickness on H&E skin sections (skin), assessment of collagen levels by Masson Trichrome staining (skin and lung), and measurement of collagen levels by Sircol assay (lung). […] Results were assessed using the unpaired t test and the 3-way ANOVA (for the ID1 data).

[10] = system: bleomycin induced lung fibrosis; settings: i.t.; concomitantly or 3 days after bleomycin; cited from earlier work

E4: SEQ ID NO: 21, amino acids 133-180 of human endostatin with a C-terminal amide (SYCETWRTEAPSATGQASSLLGGRLLGQSAASCHHAYIVLCIENSFMT-NH2; cysteine pairing not given here)
Effect of E4 peptide on PAI-1 [1]: reduces; also recorded: Decrease | TGF-β-induced dermal fibrosis (dermal thickness) ([2]; 10 μg/ml intradermal with TGF-β 10 ng/ml, one week): prevented | TGF-β induced dermal fibrosis, delayed treatment ([2]; TGF-β day 1, peptide IP at day 3, harvested day 7): significant decrease | TGF-β-induced skin fibrosis, dose response ([3]; concentrations of 5-20 μg/ml with TGF-β): clearly ameliorated | dermal thickness, baseline effect ([3]; injected alone, no TGF-β, rE 1, 5, 10 μg/ml, peptides 10 μg/ml): tendency towards reduction | development of fibrosis as measured by dermal thickness ([3]; peptides 10 μg/ml with 10 ng/ml TGF-β, vs TGF-β alone): significantly abolished | skin thickness [4]: significantly decreased skin | MMP-2 activity [5]: induction and activation | MMP-2 activity ([5]; listed as E-4): increased MMP-2 activity | total and active MMP-2 levels ([5]; cells treated with TGF-β and E-4): increased | Effect of E4 peptide on uPA [6]: Increase | Effect of E4 peptide on HGF [7]: induces conversion of pro-HGF to its active chains; also recorded: Increase | ID1 levels [8]: increases; also recorded: inducing expression | bleomycin induced dermal fibrosis [9]: significant attenuation | pulmonary fibrosis (microscopy, hydroxyproline/collagen) [10]: E4 significantly decreased
